# Test results: patent US11814444B2, “Cyclic polypeptides for PCSK9 inhibition” (Ra Pharmaceuticals, Inc., priority 2018, dated 2023)
# Numbered stars: 1 amine (or outer) side, 2 acyl side, 3 side chain; on linkers, the order of the positions; unused ones are H or OH. Bridge positions count the residues as written; N and C are the ends. Square brackets hold non-standard residues; d marks the D form. Peptide text beside a SMILES is read from it. Trp(7-aza) = N[C@@H](Cc1c[nH]c2ncccc12)C(=O)O; dBip = N[C@H](Cc1ccc(-c2ccccc2)cc1)C(=O)O; NMeW = CN[C@@H](Cc1c[nH]c2ccccc12)C(=O)O; Ac4c(3,3-F2) = NC1(C(=O)O)CC(F)(F)C1; mXylylene = c1cc(C[*:1])cc(C[*:2])c1; Chg = N[C@H](C(=O)O)C1CCCCC1; Tle = CC(C)(C)[C@H](N)C(=O)O; αMeV = CC(C)[C@](C)(N)C(=O)O; Iva = CC[C@](C)(N)C(=O)O; Nva = CCC[C@H](N)C(=O)O; Mpa = O=C(O)CCS
# Target: human PCSK9 / human LDLR EGFa domain interaction (Homo sapiens, UniProt Q8NBP7)
# Sequence (Q8NBP7 153-692): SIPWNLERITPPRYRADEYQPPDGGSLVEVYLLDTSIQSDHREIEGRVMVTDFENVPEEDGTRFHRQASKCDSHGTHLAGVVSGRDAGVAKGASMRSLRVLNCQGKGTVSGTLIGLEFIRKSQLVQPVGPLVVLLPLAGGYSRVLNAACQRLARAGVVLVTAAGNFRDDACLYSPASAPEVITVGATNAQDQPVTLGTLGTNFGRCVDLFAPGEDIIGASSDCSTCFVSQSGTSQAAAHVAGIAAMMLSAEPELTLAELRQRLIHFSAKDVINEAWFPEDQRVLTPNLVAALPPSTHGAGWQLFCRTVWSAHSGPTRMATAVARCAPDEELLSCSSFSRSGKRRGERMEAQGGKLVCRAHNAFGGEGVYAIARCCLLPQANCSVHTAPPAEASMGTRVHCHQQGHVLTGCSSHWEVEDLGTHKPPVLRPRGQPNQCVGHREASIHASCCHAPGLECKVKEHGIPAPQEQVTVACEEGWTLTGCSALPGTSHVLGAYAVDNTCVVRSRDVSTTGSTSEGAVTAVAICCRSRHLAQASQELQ
# Sequence (Q8NBP7 31-152 partner limits assumed): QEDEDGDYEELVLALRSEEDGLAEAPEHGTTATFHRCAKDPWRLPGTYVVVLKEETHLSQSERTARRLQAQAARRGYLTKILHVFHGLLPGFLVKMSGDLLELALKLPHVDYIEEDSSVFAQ
# Assay: TR-FRET assay of inhibition of the PCSK9-LDLR protein-protein interaction
# Format: binding
# Conditions: 20 nM avitag-biotinylated human PCSK9, 20 nM his-tagged human LDLR EGFa domain, 2 hours, room temperature
# Protocol: A time-resolved fluorescence resonance energy (TR-FRET) assay was used to measure inhibition of the PCSK9-LDLR protein-protein interaction. Briefly, 20 nM avitag-biotinylated human PCSK9 was incubated with 20 nM his-tagged human LDLR EGFa domain in the presence of 5 nM LANCE Ulight Streptavidin (Perkin Elmer) and 5 nM europium-Anti-6×His (Perkin Elmer) for 2 hours covered at room temperature in buffer containing 50 mM HEPES, 150 mM NaCl, 5 mM CaCl2), 0.01% BSA and 0.01% Surfactant P20. Compounds were tested in dose-response and concentrations giving half-maximal inhibition calculated using a 4-parameter fit equation.
row,IC50,Compound
1,100 to 1000 nM,CCC[C@@H]1NC(=O)[C@H](Cc2c[nH]c3ncccc23)NC(=O)[C@H]([C@@H](C)O)NC(=O)[C@@H]2CCCN2C(=O)[C@H](Cc2ccc(O)cc2)NC(=O)[C@H](C(C)(C)C)NC(=O)CCSCc2cccc(c2)CSC[C@@H](C(N)=O)NC(=O)[C@H]([C@@H](C)O)NC(=O)[C@H](CCC(=O)O)NC(=O)[C@H](Cc2ccc(O)cc2)NC(=O)[C@H](C)NC1=O [Compound 160] ([Mpa][Tle]YPT[Trp(7-aza)][Nva]AYETC-NH2; linker 1-12 via mXylylene)
2,1000 to 21000 nM,CCC[C@@H]1NC(=O)[C@H](Cc2c[nH]c3ncccc23)NC(=O)[C@H]([C@@H](C)O)NC(=O)[C@@H]2CCCN2C(=O)[C@H](Cc2ccc(O)cc2)NC(=O)[C@H](C(C)(C)C)NC(=O)CCSCc2cccc(c2)CSC[C@@H](C(N)=O)NC(=O)[C@H](CCC(=O)O)NC(=O)[C@H](CCC)NC(=O)[C@H](Cc2ccc(O)cc2)NC(=O)[C@H](C)NC1=O [Compound 159] ([Mpa][Tle]YPT[Trp(7-aza)][Nva]AY[Nva]EC-NH2; linker 1-12 via mXylylene)
3,50000 to 100000 nM,CCC[C@@H]1NC(=O)[C@H](Cc2ccc(O)cc2)NC(=O)[C@H](CCC(=O)O)NC(=O)[C@H](CCC)NC(=O)[C@H](Cc2c[nH]c3ccccc23)N(C)C(=O)[C@H]([C@@H](C)O)NC(=O)[C@H](Cc2c[nH]cn2)NC(=O)[C@H](Cc2ccc(O)cc2)NC(=O)[C@H](C(C)(C)C)NC(=O)CCSCc2cccc(c2)CSC[C@@H](C(N)=O)NC(=O)[C@H]([C@@H](C)O)NC1=O [Compound 206] ([Mpa][Tle]YHT[NMeW][Nva]EY[Nva]TC-NH2; linker 1-12 via mXylylene)
4,1 to 100 nM,CC[C@]1(C)NC(=O)[C@H](Cc2c[nH]c3ncccc23)NC(=O)[C@H]([C@@H](C)O)NC(=O)[C@@H]2CCCN2C(=O)[C@H](Cc2ccc(O)cc2)NC(=O)[C@H](C(C)(C)C)NC(=O)[C@@H](NC(C)=O)CSCc2cccc(c2)CSC[C@H](C(N)=O)NC(=O)[C@H]([C@@H](C)O)NC(=O)[C@](C)(C(C)C)NC(=O)[C@H](Cc2ccc(O)cc2)NC(=O)[C@H](C)NC1=O [Compound 193] (Ac-C[Tle]YPT[Trp(7-aza)][Iva]AY[αMeV]T[dC]-NH2; linker 1-12 via mXylylene)
5,1000 to 21000 nM,CCC[C@@H]1NC(=O)[C@H](Cc2c[nH]c3ncccc23)NC(=O)[C@H]([C@@H](C)O)NC(=O)[C@@H]2CCCN2C(=O)[C@H](Cc2ccc(O)cc2)NC(=O)[C@H](C(C)(C)C)NC(=O)CCSCc2cccc(c2)CSC[C@@H](C(N)=O)NC(=O)[C@H](CCC(=O)O)NC(=O)[C@H](C2CCCCC2)NC(=O)[C@H](Cc2ccc(O)cc2)NC(=O)[C@H](C)NC1=O [Compound 171] ([Mpa][Tle]YPT[Trp(7-aza)][Nva]AY[Chg]EC-NH2; linker 1-12 via mXylylene)
6,100 to 1000 nM,CCC[C@@H]1NC(=O)[C@H](Cc2c[nH]c3ncccc23)NC(=O)[C@H]([C@@H](C)O)NC(=O)[C@H](Cc2c[nH]cn2)NC(=O)[C@H](Cc2ccc(O)cc2)NC(=O)[C@H](C(C)(C)C)NC(=O)CCSCc2cccc(c2)CSC[C@@H](C(N)=O)NC(=O)[C@H]([C@@H](C)O)NC(=O)[C@H](CCC)NC(=O)[C@@H](Cc2ccc(-c3ccccc3)cc2)NC(=O)[C@H](CCC(=O)O)NC1=O [Compound 325] ([Mpa][Tle]YHT[Trp(7-aza)][Nva]E[dBip][Nva]TC-NH2; linker 1-12 via mXylylene)
7,1000 to 21000 nM,"CC(=O)N[C@H]1CSCc2cccc(c2)CSC[C@H](C(N)=O)NC(=O)[C@H]([C@@H](C)O)NC(=O)[C@](C)(C(C)C)NC(=O)[C@H](Cc2ccc(O)cc2)NC(=O)[C@H](C)NC(=O)C2(CC(F)(F)C2)NC(=O)[C@H](Cc2c[nH]c3ncccc23)NC(=O)[C@H]([C@@H](C)O)NC(=O)[C@@H]2CCCN2C(=O)[C@H](Cc2ccc(O)cc2)NC(=O)[C@H](C(C)(C)C)NC1=O [Compound 195] (Ac-C[Tle]YPT[Trp(7-aza)][Ac4c(3,3-F2)]AY[αMeV]T[dC]-NH2; linker 1-12 via mXylylene)"
